Laboratory results taken from ChEMBL document CHEMBL3991601, “The target landscape of clinical kinase drugs” (Science, 2017).
Activity calls are given as the source filed them. Rule as the data show it, for most assays here: actives have a measured Kd and inactives only a lower limit.

Tests used:
[1] = target: Tyrosine-protein kinase ABL1 (Homo sapiens, UniProt P00519)
[2] = target: T1, Ferrochelatase, mitochondrial (Homo sapiens, UniProt P22830)
T1 sequence (P22830 whole entry): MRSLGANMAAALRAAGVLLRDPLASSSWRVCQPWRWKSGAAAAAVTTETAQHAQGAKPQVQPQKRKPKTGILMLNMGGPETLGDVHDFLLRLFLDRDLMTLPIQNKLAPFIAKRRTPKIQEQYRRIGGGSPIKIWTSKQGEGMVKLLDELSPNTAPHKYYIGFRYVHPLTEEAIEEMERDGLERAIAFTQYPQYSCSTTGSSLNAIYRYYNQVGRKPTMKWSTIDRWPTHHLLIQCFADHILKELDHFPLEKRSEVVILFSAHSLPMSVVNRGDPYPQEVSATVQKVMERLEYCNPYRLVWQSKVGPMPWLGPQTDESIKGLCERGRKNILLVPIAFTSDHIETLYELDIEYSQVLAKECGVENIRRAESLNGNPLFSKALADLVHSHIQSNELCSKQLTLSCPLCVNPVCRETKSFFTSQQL

[3] = target: T2, Dual specificity mitogen-activated protein kinase kinase 6 (Homo sapiens, UniProt P52564)
T2 sequence (P52564 whole entry): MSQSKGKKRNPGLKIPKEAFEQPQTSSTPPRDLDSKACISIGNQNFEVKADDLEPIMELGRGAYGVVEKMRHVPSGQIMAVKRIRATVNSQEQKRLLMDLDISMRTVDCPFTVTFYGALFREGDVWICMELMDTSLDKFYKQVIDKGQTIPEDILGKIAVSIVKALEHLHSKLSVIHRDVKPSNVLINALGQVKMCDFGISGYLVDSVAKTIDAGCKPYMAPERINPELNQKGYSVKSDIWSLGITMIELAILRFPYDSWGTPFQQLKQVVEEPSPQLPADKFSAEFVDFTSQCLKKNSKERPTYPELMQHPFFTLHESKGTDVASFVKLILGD

[4] = target: T3, Mitogen-activated protein kinase kinase kinase 3 (Homo sapiens, UniProt Q99759)
T3 sequence (Q99759 whole entry): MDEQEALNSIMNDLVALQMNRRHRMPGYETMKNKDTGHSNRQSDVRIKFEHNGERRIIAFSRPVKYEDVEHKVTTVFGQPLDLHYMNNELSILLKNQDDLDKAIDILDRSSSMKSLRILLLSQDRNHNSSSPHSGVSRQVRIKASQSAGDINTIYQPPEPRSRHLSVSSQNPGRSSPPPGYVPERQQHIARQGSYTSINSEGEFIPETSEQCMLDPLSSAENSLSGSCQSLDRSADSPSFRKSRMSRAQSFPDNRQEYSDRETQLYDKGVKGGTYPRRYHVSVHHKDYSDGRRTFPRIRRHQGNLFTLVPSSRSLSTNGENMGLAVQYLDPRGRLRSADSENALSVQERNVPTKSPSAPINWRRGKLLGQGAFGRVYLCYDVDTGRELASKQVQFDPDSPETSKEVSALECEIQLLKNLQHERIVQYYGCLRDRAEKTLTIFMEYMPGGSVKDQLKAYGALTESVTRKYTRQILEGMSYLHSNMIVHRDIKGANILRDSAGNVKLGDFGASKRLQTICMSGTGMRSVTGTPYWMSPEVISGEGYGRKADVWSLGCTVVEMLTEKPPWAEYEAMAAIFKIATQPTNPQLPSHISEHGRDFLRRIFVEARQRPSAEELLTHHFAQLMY

[5] = target: T4, Thyroid hormone receptor-associated protein 3 (Homo sapiens, UniProt Q9Y2W1)
T4 sequence (Q9Y2W1 whole entry): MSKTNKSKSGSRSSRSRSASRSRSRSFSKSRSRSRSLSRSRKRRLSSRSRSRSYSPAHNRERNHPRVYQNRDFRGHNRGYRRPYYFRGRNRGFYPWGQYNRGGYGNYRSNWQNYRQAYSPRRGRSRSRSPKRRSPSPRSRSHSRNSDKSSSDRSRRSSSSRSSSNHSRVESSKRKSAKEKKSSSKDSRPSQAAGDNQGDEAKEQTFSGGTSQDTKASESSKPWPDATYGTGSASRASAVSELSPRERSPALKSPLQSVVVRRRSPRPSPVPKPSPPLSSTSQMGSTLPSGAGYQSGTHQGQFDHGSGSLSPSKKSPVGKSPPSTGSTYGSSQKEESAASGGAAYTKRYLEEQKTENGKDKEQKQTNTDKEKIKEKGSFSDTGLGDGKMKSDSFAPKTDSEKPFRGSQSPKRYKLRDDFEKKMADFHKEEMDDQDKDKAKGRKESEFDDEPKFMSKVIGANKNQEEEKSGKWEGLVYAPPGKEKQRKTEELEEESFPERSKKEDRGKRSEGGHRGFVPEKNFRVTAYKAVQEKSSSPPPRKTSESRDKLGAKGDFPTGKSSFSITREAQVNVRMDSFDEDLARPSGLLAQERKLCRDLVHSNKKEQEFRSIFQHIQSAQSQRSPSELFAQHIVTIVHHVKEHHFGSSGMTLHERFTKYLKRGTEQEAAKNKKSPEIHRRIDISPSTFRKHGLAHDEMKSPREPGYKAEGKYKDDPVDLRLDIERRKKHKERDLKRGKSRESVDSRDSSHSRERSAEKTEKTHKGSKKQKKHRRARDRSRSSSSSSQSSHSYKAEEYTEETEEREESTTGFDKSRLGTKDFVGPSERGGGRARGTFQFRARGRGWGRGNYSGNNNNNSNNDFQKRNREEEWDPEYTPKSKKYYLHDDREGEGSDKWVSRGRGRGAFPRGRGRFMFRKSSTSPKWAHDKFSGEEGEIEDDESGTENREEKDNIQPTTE
Also: in the data inactive means no Kd found up to 30 µM.

Chain of Tyrosine-protein kinase ABL1 (P00519 whole entry): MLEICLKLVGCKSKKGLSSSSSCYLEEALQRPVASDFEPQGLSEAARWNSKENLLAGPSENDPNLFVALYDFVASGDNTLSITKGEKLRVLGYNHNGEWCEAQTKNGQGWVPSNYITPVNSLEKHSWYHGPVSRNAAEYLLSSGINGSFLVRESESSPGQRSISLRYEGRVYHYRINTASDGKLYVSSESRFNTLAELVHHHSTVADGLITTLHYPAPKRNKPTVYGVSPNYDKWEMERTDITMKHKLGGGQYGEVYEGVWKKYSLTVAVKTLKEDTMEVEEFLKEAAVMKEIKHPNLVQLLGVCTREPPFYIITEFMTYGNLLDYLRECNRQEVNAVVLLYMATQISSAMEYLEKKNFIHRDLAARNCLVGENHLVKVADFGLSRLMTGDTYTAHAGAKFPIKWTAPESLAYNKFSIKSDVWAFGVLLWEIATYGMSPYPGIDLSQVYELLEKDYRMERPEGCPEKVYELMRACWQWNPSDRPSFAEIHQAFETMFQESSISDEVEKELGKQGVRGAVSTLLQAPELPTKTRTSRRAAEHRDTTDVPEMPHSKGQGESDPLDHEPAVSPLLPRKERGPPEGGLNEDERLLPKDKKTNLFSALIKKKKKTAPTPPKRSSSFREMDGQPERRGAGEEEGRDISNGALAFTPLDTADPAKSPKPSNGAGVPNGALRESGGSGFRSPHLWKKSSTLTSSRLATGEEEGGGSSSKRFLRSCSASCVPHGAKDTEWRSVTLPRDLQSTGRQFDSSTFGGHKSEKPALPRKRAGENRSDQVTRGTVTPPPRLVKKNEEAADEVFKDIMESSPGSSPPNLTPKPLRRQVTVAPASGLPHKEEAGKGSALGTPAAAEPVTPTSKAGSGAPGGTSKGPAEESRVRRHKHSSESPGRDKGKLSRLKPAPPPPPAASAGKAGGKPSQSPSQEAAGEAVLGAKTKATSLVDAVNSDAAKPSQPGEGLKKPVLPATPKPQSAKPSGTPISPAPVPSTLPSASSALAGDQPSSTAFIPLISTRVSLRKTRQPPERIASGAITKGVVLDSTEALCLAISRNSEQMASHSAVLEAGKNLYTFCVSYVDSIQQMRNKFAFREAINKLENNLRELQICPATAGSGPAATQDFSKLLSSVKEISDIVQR

Row | Structure (SMILES) | Kd [1] | Kd [2] | Kd [3] | Kd [4] | Kd [5]
1 | C[C@@H](Oc1cc(C(=O)Nc2ccc(C(=O)N3CCN(C)CC3)cc2)nnc1N)c1c(Cl)ccc(F)c1Cl | > 30 µM (inactive) | > 30 µM (inactive) | > 30 µM (inactive) | > 30 µM (inactive) | 
2 | CC(=O)c1cnc2ccc(-c3cc(Cl)c(O)c(Cl)c3)nc2c1N[C@H]1CC[C@H](CN(C)C)CC1 | 0.28 µM (active) | 1.09 µM (active) | 4.56 µM (active) |  | 
3 | COc1cc(Nc2ncc3c(n2)-c2ccc(Cl)cc2C(c2c(F)cccc2OC)=NC3)ccc1C(=O)O [ALISERTIB] |  | > 30 µM (inactive) | > 30 µM (inactive) | > 30 µM (inactive) | > 30 µM (inactive)
4 | C=CC(=O)Nc1cc2c(Nc3ccc(F)c(Cl)c3)ncnc2cc1C#CC(C)(C)N1CCN(C)CC1 [AV-412 FREE BASE] | > 30 µM (inactive) | > 30 µM (inactive) | > 30 µM (inactive) | > 30 µM (inactive) | 
5 | CNC(=O)c1ccccc1Sc1ccc2c(/C=C/c3ccccn3)n[nH]c2c1 [AXITINIB] |  | 6.84 µM (active) |  |  | > 30 µM (inactive)
6 | COc1cc([C@@H]2c3cc4c(cc3[C@H](O)[C@H]3COC(=O)[C@@H]23)OCO4)cc(OC)c1OC [AXL-1717] | > 30 µM (inactive) | > 30 µM (inactive) | > 30 µM (inactive) | > 30 µM (inactive) | 
7 | COc1c(OCCCN2CCOCC2)ccc2c1N=C(NC(=O)c1cnc(N)nc1)N1CCN=C21 [COPANLISIB] | > 30 µM (inactive) | > 30 µM (inactive) | > 30 µM (inactive) | > 30 µM (inactive) | 
8 | CC(C)(C)c1nc(-c2cccc(NS(=O)(=O)c3c(F)cccc3F)c2F)c(-c2ccnc(N)n2)s1 [DABRAFENIB] |  | > 30 µM (inactive) | > 30 µM (inactive) |  | > 30 µM (inactive)
9 | Cn1cc(C2=C(c3cn(C4CCN(Cc5ccccn5)CC4)c4ccccc34)C(=O)NC2=O)c2ccccc21 [ENZASTAURIN] |  | > 30 µM (inactive) |  |  | 
10 | Cc1nc2cc(-n3ncc(C(=O)c4cc5ccccc5[nH]4)c3N)ccc2[nH]1 [FGFR INHIBITOR DEBIO 1347] | > 30 µM (inactive) | > 30 µM (inactive) | > 30 µM (inactive) | > 30 µM (inactive) | 
11 | O=C(Nc1nc2cccc(-c3ccc(CN4CCS(=O)(=O)CC4)cc3)n2n1)C1CC1 [FILGOTINIB] | > 30 µM (inactive) | > 30 µM (inactive) | > 30 µM (inactive) | > 30 µM (inactive) | 
12 | Cc1cccc(-c2nn3c(c2-c2ccnc4ccc(C(N)=O)cc24)CCC3)n1 [GALUNISERTIB] | > 30 µM (inactive) | > 30 µM (inactive) | > 30 µM (inactive) | > 30 µM (inactive) | 
13 | CNC(=O)c1cccc2cc(Oc3ccnc4cc(OCC5(N)CC5)c(OC)cc34)ccc12 [LUCITANIB] | > 30 µM (inactive) | > 30 µM (inactive) | > 30 µM (inactive) | > 30 µM (inactive) | 
14 | CNC(=O)c1nn(C)c2c1C(C)(C)Cc1cnc(Nc3ccc(N4CCN(C)CC4)cc3)nc1-2 [MILCICLIB] |  | > 30 µM (inactive) | > 30 µM (inactive) | > 30 µM (inactive) | 
15 | COc1ncc(-c2ccc3nccc(-c4ccnnc4)c3c2)cc1NS(=O)(=O)c1ccc(F)cc1F [OMIPALISIB] | > 30 µM (inactive) | > 30 µM (inactive) | > 30 µM (inactive) | > 30 µM (inactive) | 
16 | Cc1[nH]c(/C=C2\C(=O)Nc3ccccc32)c(C)c1CCC(=O)O [ORANTINIB] |  | > 30 µM (inactive) | > 30 µM (inactive) | > 30 µM (inactive) | > 30 µM (inactive)
17 | CCOc1cc2ncc(C#N)c(Nc3ccc(F)c(Cl)c3)c2cc1NC(=O)/C=C/CN(C)C [PELITINIB] |  | 10.5 µM (active) | > 30 µM (inactive) | 2.09 µM (active) | > 30 µM (inactive)
18 | N#CC[C@H](C1CCCC1)n1cc(-c2ncnc3[nH]ccc23)cn1 [RUXOLITINIB] |  | > 30 µM (inactive) |  |  | > 30 µM (inactive)
19 | Cn1ncc(Cl)c1-c1cc(C(=O)N[C@H](CN)Cc2ccc(F)c(F)c2)oc1Cl [UPROSERTIB] | > 30 µM (inactive) | > 30 µM (inactive) | > 30 µM (inactive) | > 30 µM (inactive) | 

Second part, the compound after the results:

Row | Kd [1] | Kd [2] | Kd [3] | Kd [4] | Kd [5] | Structure (SMILES)
20 | > 30 µM (inactive) | 6.5 µM (active) | > 30 µM (inactive) | > 30 µM (inactive) |  | Nc1ncnc2c1c(-c1cccc(OCc3ccccc3)c1)cn2[C@H]1C[C@@H](CN2CCC2)C1 [AEW-541]
21 |  | > 30 µM (inactive) | 3.54 µM (active) | 0.345 µM (active) | > 30 µM (inactive) | O=C(Nc1c[nH]nc1-c1nc2cc(CN3CCOCC3)ccc2[nH]1)NC1CC1 [AT-9283]
22 |  | 2.87 µM (active) | > 30 µM (inactive) | > 30 µM (inactive) | > 30 µM (inactive) | C#Cc1cccc(Nc2ncnc3cc(OC)c(OCCCCCCC(=O)NO)cc23)c1 [CUDC-101]
23 |  | > 30 µM (inactive) |  |  | > 30 µM (inactive) | C[C@@H](Oc1cc(-n2cnc3ccc(CN4CCN(C)CC4)cc32)sc1C(N)=O)c1ccccc1C(F)(F)F [GSK-461364]
24 |  | 2.41 µM (active) | > 30 µM (inactive) | > 30 µM (inactive) |  | CCn1cc(-c2ccnc3[nH]c(-c4cccc(CN(C)C)c4)cc23)c(-c2ccc(NC(=O)N(C)C)cc2)n1 [GSK-1070916]
25 | > 30 µM (inactive) | 3.42 µM (active) | > 30 µM (inactive) | > 30 µM (inactive) |  | CN(C[C@@H]1COCCO1)S(=O)(=O)Nc1ccc2ccc3ncc(-c4cnn(C)c4)cc3c(=O)c2c1 [MK-2461]
26 |  | > 30 µM (inactive) | > 30 µM (inactive) |  | > 30 µM (inactive) | NC(=O)c1c(OCc2c(F)cc(Br)cc2F)nsc1NC(=O)NCCCCN1CCCC1 [OSI-632]
27 |  | > 30 µM (inactive) | > 30 µM (inactive) | 0.246 µM (active) | > 30 µM (inactive) | CC(=O)NCC(=O)N1[C@@H]2CC[C@H]1c1ccc(Nc3ncc(C(F)(F)F)c(NC4CCC4)n3)cc12 [PF-03814735]
28 |  | > 30 µM (inactive) |  |  |  | O=C(NOCCO)c1cc(CN2OCCCC2=O)c(F)c(F)c1Nc1ccc(I)cc1F [RO-4987655]
29 | 0.31 µM (active) | > 30 µM (inactive) | > 30 µM (inactive) | > 30 µM (inactive) |  | CCS(=O)(=O)c1cccc(-c2cc(C(=O)NC3CCN(C)CC3)c(C)c3[nH]c4ncc(C)cc4c23)c1 [TAK-901]
30 | > 30 µM (inactive) | > 30 µM (inactive) | > 30 µM (inactive) | > 30 µM (inactive) |  | C[C@@H](N)c1ccc(C(=O)Nc2ccnc3[nH]ccc23)cc1 [Y-39983]
